# Source: US8945879B2, “Methods for recombinant expression of a polypeptide comprising a carbohydrate binding module using a host cell having reduced expression of a protease” (priority 2007, dated 2015)
# Numbered stars: 1 amine (or outer) side, 2 acyl side, 3 side chain; on linkers, the order of the positions; unused ones are H or OH. Square brackets hold non-standard residues; d marks the D form. Peptide text beside a SMILES is read from it. * marks the point of attachment. Sta = CC(C)C[C@H](N)[C@@H](O)CC(=O)O; AMC = Cc1cc(=O)oc2cc(N*)ccc12; Suc = O=C(CCC(=O)[*:2])[*:1]; Isovaleryl = CC(C)CC(=O)*; code Z = not defined here; Boc = CC(C)(C)OC(=O)*
# B1: 19 kDa protease: Aspergillus niger 19 kDa protease (SEQ ID NO: 5) expressed intracellularly in A. oryzae, pooled gel permeation fractions (protein)
# chain: MSPIPSYSRPGRGQHFQDAYGFAEACIAGDRMEIAGQTGMSPTSTEVPPTLEEEVAQAFNNINEVILYTLEKAKPDLRASVKSGWDRVVKIRTYHVQLPQTREKIIGLMVENVKKWCPDHQPTWTMLGIEALPFEGQNLEIEVDVFLG
# modifications: Aspergillus niger
# System: not listed separately
# Test: pH profile of the 19 kDa protease
# Assay type: biochemical, Aspergillus niger
# Conditions: phosphate buffer pH 6, 7, 8 and diethanolamine buffer pH 8, 9, 10; 0.04 mM Suc-LLVY-MCA
# Protocol: (§1) Five synthetic substrates were purchased from Peptide Institute Co., Osaka. The substrates are Glt-AAF-MCA, Suc-LLVY-MCA, Boc-FSR-MCA, Suc(OMe)-AAPV-MCA, and Z-LLE-MCA. 25 μl of 0.04 mM substrates were preincubated at 37° C. for 5 min. 20 μl of protease sample were mixed with 25 μl of 400 mM phosphate buffer, pH 6.7, 5 μl of 2 M NaCl, and 25 μl of Milli Q water, and then preincubated at 37° C. for 5 min. The reactions were started by mixing the substrate solutions and the enzyme solutions. Increases of fluorescent strength were measured by FL600 Microplate Fluorescence Reader with 360 nm excitation and 460 nm emission filters at 37° C. for 30 min.
# Phosphate buffer pH6, 7, 8, and Diethanolamine buffer pH 8, 9, 10 were used. The substrate solution was 0.04 mM Suc-LLVY-MCA. The enzyme solution contains 5 μl of 19 kDa protease, 25 μl of buffer, 5 μl of 2 M NaCl and 40 μl of Milli Q water. Assay was performed as described before. The 19 kDa protease is an alkaline protease with the pH optimum 8-9.
row,Molecule,pH optimum
1,B1,8-9

# System: 19 kDa protease
# Test: Effects of inhibitors on the 19 kDa protease (Suc-LLVY-MCA hydrolysis)
# Assay type: biochemical, Aspergillus niger
# Conditions: substrate 0.04 mM Suc-LLVY-MCA, KPB pH 6.7, 37° C.; 10 μl inhibitor stock (10 mM AEBSF, ZnSO4, EDTA; leupeptin 4.5 mg/10 ml and pepstatin A 3 mg/10 ml in DMSO diluted 10 times)
# Protocol: as §1
# 4-(2-aminoethyl)-benzenesulfonyl fluoride (AEBSF), leupeptin, pepstatin A, ZnSO4, and EDTA were purchased from Wako Chemical Co., Osaka. The inhibitors were 4.5 mg/10 ml leupeptin in DMSO diluted 10 times by Milli Q water, 3 mg/10 ml pepstatin A in DMSO diluted 10 times by Milli-Q water, 10 mM AEBSF, 10 mM ZnSO4, and 10 mM EDTA. The substrate was 0.04 mM Suc-LLVY-MCA. Enzyme solution contains 5 μl of pooled 19 kDa protease fraction, 10 μl of inhibitors, 25 μl of 400 mM KPB, pH 6.7, and 35 μl of Milli-Q water. The substrate solution and the enzyme solutions were preincubated separately at 37° C. for 5 min. The activities were measured as described above.
row,Molecule,residual activity (%)
1,"NCCc1ccc(S(=O)(=O)F)cc1 [AEBSF, 4-(2-aminoethyl)-benzenesulfonyl fluoride]",100
2,O=C(O)CN(CCN(CC(=O)O)CC(=O)O)CC(=O)O [EDTA],101
3,"CC(=O)N[C@@H](CC(C)C)C(=O)N[C@@H](CC(C)C)C(=O)N[C@H](C=O)CCCNC(=N)N [Leupeptin, leupeptin]",89
4,"CC(C)CC(=O)N[C@H](C(=O)N[C@H](C(=O)N[C@@H](CC(C)C)[C@@H](O)CC(=O)N[C@@H](C)C(=O)N[C@@H](CC(C)C)[C@@H](O)CC(=O)O)C(C)C)C(C)C [Pepstatin, pepstatin A] (Isovaleryl-VV[Sta]A[Sta]-OH)",91
5,O=S(=O)([O-])[O-].[Zn+2] [ZnSO4],99

# System: 19 kDa protease
# Test: Substrate specificity of the 19 kDa protease (fluorogenic MCA substrates)
# Assay type: biochemical, Aspergillus niger
# Conditions: 0.04 mM substrate solution, phosphate buffer pH 6.7, 37° C., 30 min, fluorescence 360/460 nm; Suc-LLVY-MCA = 100%
# Protocol: as §1
row,Molecule,Substrate specificity (relative activity on substrate) [%]
1,"Boc-FSR-MCA (Boc-Phe-Ser-Arg-{AMC}) [synthetic substrate purchased from Peptide Institute Co., Osaka]",0.3
2,"Glt-AAF-MCA (Glt-Ala-Ala-Phe-{AMC}) [synthetic substrate purchased from Peptide Institute Co., Osaka]",1.6
3,"Suc(OMe)-AAPV-MCA ({Suc(OMe)}-AAPV-{AMC}) [synthetic substrate purchased from Peptide Institute Co., Osaka]",0.2
4,"Suc-LLVY-MCA (Suc-LLVY-{AMC}) [synthetic substrate purchased from Peptide Institute Co., Osaka]",100.0
5,"Z-LLE-MCA ({code Z}-Leu-Leu-Glu-{AMC}; reading uncertain; also: printed as Z-LLE-MCA) [synthetic substrate purchased from Peptide Institute Co., Osaka]",0.1

# Same assay, conditions: five synthetic substrates compared, pH 6.7, 37° C.
row,Molecule,substrate ranking (in words)
1,"Suc-LLVY-MCA (Suc-LLVY-{AMC}) [synthetic substrate purchased from Peptide Institute Co., Osaka]",best substrate
